# Reference: patent publication US20140072567A1, “Methods Of Treating And Preventing Glucose Toxicity” (Walter and Eliza Hall Institute of Medical Research, ACN …, priority 2008, published 2014)
# Experiments:
# [1] = tested on: islets from wild type C57BL/6 mice; assay: DNA fragmentation assay (sub-diploid DNA, flow cytometry); assay type: cell-based; conditions: for DNA fragmentation: wild-type islets
# Method: Uniformly sized islets (excluding very large or necrotic islets) were handpicked into 3.5 cm Petri dishes containing 1.1 mL of complete CMRL. Islets were then cultured with the appropriate stimuli to cause DNA fragmentation. At the end of the culture period, non-attached cells and islets were transferred into polypropylene tubes and washed in PBS. Islets were then dispersed with trypsin (0.1 mg/mL bovine trypsin (Calbiochem) and 2 mmol/L EDTA in PBS) for 5 min at 37° C. Islets were mechanically dispersed using a pipette, washed in PBS, and allowed to recover in complete CMRL medium for 1 h at 37° C. in 5% CO2. Cells were then washed in PBS and resuspended in 250 μL of hypotonic buffer containing 50 mg/mL propidium iodide (Sigma-Aldrich), 0.1% sodium citrate, and 0.1% TritonX-100 which stains nuclear DNA. The cells were then analyzed on a FACSCalibur (Becton Dickinson, Franklin Lakes, N.J., USA) using the FL3 channel. Cells undergoing apoptosis were identified by their sub-diploid DNA content as previously described (Riccardi and Nicoletti, 2006).
# [2] = tested on: islets from wild-type mice; assay: Cytochrome c release from mitochondria (flow cytometry); assay type: cell-based
# Method: FIG. 1: Wild-type islets cultured in high concentrations of glucose or ribose undergo DNA fragmentation and mitochondrial release of cytochrome C, both indicative of apoptosis, and have a reduced ability to secrete insulin. (A) 200 islets from wild-type C57BL/6 mice were either cultured in low glucose medium (5.6 mM) (unt) or cultured in high glucose media (33.3 mM) for 6 days or high ribose medium (50 mM) for 4 days and DNA fragmentation was measured. Representative flow cytometry profiles are shown i). Data represent islets from 13-17 individual mice per group ii). Statistical significance; *p<0.001 compared with unt (one-way ANOVA). (B) 100 islets from wild-type mice were cultured under conditions mentioned above for 4 and 3 days respectively and cytochrome C release was measured. Representative flow cytometry profiles are shown i). Data represent islets from 4 individual mice per group. ii) Statistical significance; *p<0.001 ** p<0.05 compared with unt (one-way ANOVA). (C) wild-type islets were cultured in high concentrations of ribose (50 mM) for 2 days and insulin release was measured after glucose stimulation. Statistical significance; *p<0.01 compared with unt (one-way ANOVA). […]
# bim = assay: Real-time qRT-PCR of islets, bim; assay type: cell-based, mice; conditions: for up-regulation of bim mRNA: islets exposed to high concentrations of glucose or ribose
# Method: (§1) FIG. 7: Ribose induces expression of Puma and Bax in islets. Quantitative RT-PCR of wild-type islets cultured in control medium or medium containing 50 mM ribose, 33.3 mM glucose or 5 μM thapsigargin for 24 or 48 h. Relative RNA expression levels for (A) Puma (B) Bim and (C) Bax were calculated by normalizing to the signal for β-actin in each sample and comparison to islets cultured in control medium. Mean±SEM of 3-4 independent experiments is shown. Statistical significance *p<0.05, **p<0.01 compared with control (two-tailed paired t-test). RNA was prepared using the RNeasy Kit (Qiagen). First strand cDNA was prepared from 0.1-0.2 μg RNA using the High Capacity RNA-to-cDNA Master Mix (Applied Biosystems). Real-time PCR was performed using the ABI Prism 7900 (Applied Biosystems) and the Power SYBR Green PCR Master Mix (Applied Biosystems) in 15 μl reaction volumes. Data analyses were performed with the CT method using actin as an internal control. qRT-PCR was performed using the following forward and reverse primers (a kind gift from Drs DCS Huang and M Narita) (Table 1).
# iNOS = assay: Western blotting for iNOS expression in islets; assay type: cell-based, mice; conditions: islets cultured in high glucose (33.3 mM) in the presence of IFNγ
# Method: (§2) FIG. 2: IL-1β or Fas are not required for glucose or ribose induced beta cell apoptosis. (A) 200 islets from wild-type, IL-1R^−/− and B6^lpr/lpr mice were cultured for 6 days in 5.6 mM low glucose medium (unt) or 33.3 mM D-glucose or for 4 days in 50 mM ribose. DNA fragmentation was measured by flow cytometry. (B) 100 wild-type islets were cultured for 7 days in 5.6 mM or 33.3 mM D-glucose with cytokines added in the last 4 days and iNOS expression, NO production and DNA fragmentation was measured. Representative Western blot for iNOS expression (β-actin used as loading control). (C) NO2 determination of culture supernatant (D) DNA fragmentation was measured by flow cytometry. (E) Wild-type islets were cultured in 50 mM ribose or cytokines for 2 days, 33.3 mM D-glucose for 4 days (solid lines) compared to islets cultured in 5.6 mM D-glucose (broken lines). Fas expression on β cells was analysed by FACS analysis. (F) Wild-type islets cultured for 7 days in 5.6 mM (−) or 33.3 mM (+) glucose with cytokines or FasL added in the last 4 days. The data represent the mean±S.E.M of three experiments. Islets were incubated for 4 days with cytokines and 33.3 mM glucose, transferred to microcentrifuge tubes and washed three times in PBS. […]
# Fas = Fas expression on islet beta cells by flow cytometry; assay type: cell-based, mice; conditions: high glucose (33.3 mM, 4 days) compared to untreated controls
# Method: as §2, with “Islets cells” for “Islets”, “analysed” for “incubated”, “expression of Fas by flow cytometry as previously described (Thomas et al., 1999). Islets were dispersed into single cells as described above” for “4 days with cytokines”, “stained using standard procedures.” for “33.3 mM glucose, transferred to microcentrifuge tubes and washed three times in PBS.”
# puma = assay: Real-time qRT-PCR of islets, puma; assay type: cell-based, mice
# Method: as §1
# bax = assay: Real-time qRT-PCR of islets, bax; assay type: cell-based, mice
# Method: as §1
# wild type islets = assay: Glucose-stimulated insulin secretion assay; assay type: cell-based, mice; conditions: wild type islets exposed to ribose (50 mM) for two days
# Method: Insulin secretion assays were performed as previously described (Thomas et al., 2002). Two hundred islets were cultured in complete CMRL and ribose for 2 days, then washed three times in Krebs-Ringer bicarbonate buffer (KRB; 25 mmol/l HEPES, 115 mmol/l NaCl, 24 mmol/l NaHCO3, 5 mmol/l MgCl2, 2.5 mmol/l CaCl2, pH 7.4) with 3 mmol/l glucose and 0.1% BSA. Groups of 20 islets in quadruplicate were incubated for 30 min in 200 μl KRB containing 3 mmol/l glucose under 5% CO2/95% air with shaking at 37° C., followed by a second incubation in 200 μl KRB containing either 3 or 20 mmol/l glucose. Buffer was sampled for insulin after 30 min using a mouse insulin ELISA kit (Linco Research, Mo., USA).
# bak = assay: Real-time qRT-PCR of islets, bak; assay type: cell-based, mice; conditions: 5 μM thapsigargin, data not shown
# Method: as §1
compound,measurement,setting,value
O=C[C@H](O)[C@@H](O)[C@H](O)[C@H](O)CO [D-glucose],DNA fragmentation,"[1]; 33.3 mM D-glucose, 6 days, compared to low glucose media (5.6 mM)",modest but significant increase
same,release of cytochrome c from the mitochondria,"[2]; high glucose (33.3 mM), 4 days, compared to untreated islets",significant increase
same,up-regulation of bim mRNA,bim,no up-regulation
same,iNOS expression,iNOS,no iNOS expression
same,Fas expression on islet cells,Fas,slight but insignificant rise
"O=C[C@H](O)[C@H](O)[C@H](O)CO [ribose, D-ribose]",DNA fragmentation,"[1]; 50 mM ribose, 4-day period, compared to high concentrations of glucose",significantly more DNA fragmentation
same,release of cytochrome c from the mitochondria,"[2]; high ribose (50 mM), 3 days, compared to high glucose",more pronounced
same,increase in expression of puma,"puma; 50 mM ribose, 48 h",4 fold
same,increase in expression of bax,"bax; 50 mM ribose, 48 h",4 fold
same,up-regulation of bim mRNA,bim,no up-regulation
same,Bim expression,bim; ribose incubation (50 mM),remained unchanged
same,insulin secretory function after glucose stimulation,wild type islets,significant loss
"C/C=C(/C)C(=O)O[C@H]1C(C)=C2[C@H]([C@@H]1OC(=O)CCCCCCC)[C@@](C)(OC(C)=O)C[C@H](OC(=O)CCC)[C@@]1(O)[C@H]2OC(=O)[C@@]1(C)O [thapsigargin, reference compound]",increase in expression of puma,"puma; 5 μM thapsigargin, 24 or 48 h",2-7 fold
same,increase in expression of bax,"bax; 5 μM thapsigargin, 24 or 48 h",2-7 fold
same,increase in expression of bak,bak,2-7 fold
same,increase in expression of bim,bim; 5 μM thapsigargin,not
"z-Val-Ala-Aspfluoromethylketone [z-VAD.fmk, reference compound]",inhibition of ribose-induced islet cell DNA fragmentation,[1]; pan-caspase inhibitor used at 100 μmol/L,significantly inhibited
